Read-outs that look alike come from different tables or passages of the source.
Key:
Format in all cases: cell-based
[1] = system: Germinating conidia of Aspergillus flavus; test: Lethality bioassay on germinating conidia; settings: for viability at 5 µM / viability at 10 µM / viability at 15 µM / viability at 20 µM / viability at 25 µM / viability at 30 µM: read-out: Percent of Control Mean (viable colonies, Aspergillus flavus)
Description: Pathogen production. Stock slant isolates of Aspergillus flavus, Fusarium oxysporum, and Fusarium moniliforme were grown on potato dextrose agar (Difco, Detroit, Mich.) slants for 7 days at room temperature (22° C.).
Inoculum preparation. Prior to a bioassay, 4 ml of 1% potato dextrose broth (PDB, Difco, Detroit, Mich.), pH 4.86, was added to a stock culture slant. The conidia were suspended by gentle agitation using the pipette tip and the population determined with the use of a hemocytometer. The conidia were then diluted to a 10^4 conidia/ml concentration and incubated for 8 hrs at 22° C. to obtain germinating conidia that were used in the bioassays.
Experimental design of lethality bioassays to determine activity of coruscanone A. Coruscanone A was diluted in 100% methanol with a further dilution in PDB to achieve a stock concentration of 0.032 μg/μl. Test mixtures of germinating conidia and compound 67 were made in sterile 500 μl Eppendorf (Brinkman, Westbury, N.Y.) microcentrifuge tubes. Final test concentrations of compound 67 were 0, 5, 10, 15, 20, 25, and 30 μM in a final volume of 250 μl (0.0635 μg/μl=1.0 μM/250 μl). After an incubation of 30 min, 16 hours and 24 hours at 22° C., aliquots (50 μl) of the each sample were spread on each of 4 PDA plates. The plates were incubated at 22° C. for 2 days and the developed, viable colonies were enumerated. Separate bioassays were also set up at the same time as that with the 30 min incubation period but incubated at 22° C. for 16 and 24 hours, respectively. These samples were spread as previously described and the developing, viable colonies enumerated. Bioassays were performed on three separate occasions per fungus (n=12). Statistical analysis was performed using SigmaPlot 9.0 (p<0.05).

Phomopsis obscurans = test: 96-well microtiter fungal growth assay
Description: (§1) Pathogen collection. Isolates of Colletotrichum acutatum Simmonds, Colletotrichum fragariae Brooks, and Colletotrichum gloeosporioides (Penz.) Penz. & Sacc. in Penz. were obtained from B. J. Smith, USDA, ARS, Small Fruit Research Station, Poplarville, Mass. Colletotrichum fragariae (isolate CF63), C. acutatum (isolate CAGoff), and C. gloeosporioides (isolate CG162) were used for all pathogen and bioautography studies. Isolate CF63 is one of the most virulent isolates at infecting strawberry plants and inducing both crown and fruit rot (Smith and Black, 1990). CF63, CAGoff, and CG162 were used as standard test isolates because of our extensive knowledge of these isolates and their known fungicide sensitivity profiles in both bioautography and microtiter formats. The three Colletotrichum species were isolated from strawberry (Fragaria xananassa Duchesne). Botrytis cinerea Pers.:Fr, was isolated from commercial grape (Vitis vinifera L.) and Fusarium oxysporum Schlechtend:Fr from orchid (Cynoches sp.) by David E. Wedge, USDA ARS Natural Products Utilization Research Unit. Phomopsis viticola (Sacc.) and P. obscurans (Ellis & Everh.) Sutton were from Mike A. Ellis, Ohio State University, Wooster, Ohio. Fungi were grown on potato-dextrose agar (PDA, Difco, Detroit Mich.) in 9 cm petri dishes and incubated in a growth chamber at 24±2° C. and under cool-white fluorescent lights ([…]·m^−2·sec^−1 light) with 12-h photoperiod.
(§2) Inoculum preparation. Conidia were harvested from 7–10 day-old cultures by flooding plates with 5 mL of sterile distilled water and dislodging conidia by softly brushing the colonies with an L-shaped glass rod. Conidial suspensions were filtered through sterile miracloth (Calbiochem-Novabiochem Corp., La Jolla Calif.) to remove mycelia. Conidia concentrations were determined photometrically, from a standard curve based on the absorbance at 625 nm and suspensions were then adjusted with sterile distilled water to a concentration of 1.0×10^6 conidia/mL.
(§3) Microtiter assay. A standardized 96-well microtiter plate assay developed for discovery of natural product fungicidal agents. A 96-well microtiter assay was used to determine sensitivity of B. cinerea, C. acutatum, C. fragariae, C. gloeosporioides, F. oxysporum, Phomopsis viticola, and P. obscurans to the various antifungal agents in comparison with known fungicidal standards. Vinclozolin, captan, and thiabendazole, which represent three different modes of action, were used as standards in this experiment. Each fungus was challenged in a dose-response format using test compounds where the final treatment concentrations were 0.3, 3.0 and 30.0 μM. Microtiter plates (Nunc MicroWell, untreated; Roskilde, Denmark) were covered with a plastic lid and incubated in a growth chamber at 24±1 C and 12 h photoperiod under 60±5 μmol light. Growth was then evaluated by measuring absorbance of each well at 620 nm using a microplate photometer (Packard Spectra Count, Packard Instrument Co., Downers Grove, Ill.).
(§4) Microbioassay Experimental Design. Chemical sensitivity of each fungus 96-well microtiter assay is used to determine sensitivity of B. cinerea, C. acutatum, C. fragariae, C. gloeosporioides, F. oxysporum, Phomopsis viticola, and P. obscurans. Each chemical is evaluated in duplicate at each dose (0.3, 3.0 and 30.0 μM) and repeated twice in time. Sixteen wells containing broth and inoculum serves as positive controls, eight wells containing solvent at the appropriate concentration and broth without inoculum are used as negative controls. […] Treatments are arranged as a split-plot design replicated twice in time. Whole-plots were fungal isolates and sub-plots are chemicals. Each dose level and response time is analyzed separately. The SAS system's analysis of variance procedure (Statistical Analysis System, Cary, N.C.) is used to identify significant factors and Fisher's protected LSD is used to separate means.

Phomopsis viticola = test: 96-well microtiter fungal growth assay;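 as to Mean percent fungal growth inhibition of Phomopsis viticola: percent relative to untreated positive growth controls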
Description: as §1, §2, §3, §4

COC(/C=C/c1ccccc1)=C1\C(=O)C=C(C)C1=O [Compound 1, coruscanone A]
viability at 5 µM ([1]; 0.5 h): 109% | viability at 10 µM ([1]; 0.5 h): 86.6% | viability at 15 µM ([1]; 0.5 h): 98% | viability at 20 µM ([1]; 0.5 h): 78.9% | viability at 25 µM ([1]; 0.5 h): 70% | viability at 30 µM ([1]; 0.5 h): 66.5% | viability at 5 µM ([1]; 16 h): 75.2% | viability at 10 µM ([1]; 16 h): 76.4% | viability at 15 µM ([1]; 16 h): 45.4% | viability at 20 µM ([1]; 16 h): 39.1% | viability at 25 µM ([1]; 16 h): 30.5% | viability at 30 µM ([1]; 16 h): 19.5% | viability at 5 µM ([1]; 24 h): 113% | viability at 10 µM ([1]; 24 h): 71.8% | viability at 15 µM ([1]; 24 h): 64.8% | viability at 20 µM ([1]; 24 h): 55.7% | viability at 25 µM ([1]; 24 h): 40.6% | viability at 30 µM ([1]; 24 h): 28.7% | Lethality to germinating conidia (in words) ([1]; after 24 hours of incubation, any tested concentration): no longer significantly lethal | Lethality to germinating conidia (in words) ([1]; incubated 30 min): not lethal | Percent change in fungal growth vs control (negative = inhibition) (Phomopsis obscurans; 0.3 μm, 120 hrs): 3.3 ± 19.9% | Percent change in fungal growth vs control (negative = inhibition) (Phomopsis obscurans; 0.3 μm, 144 hrs): 33.3 ± 41.6% | Percent change in fungal growth vs control (negative = inhibition) (Phomopsis obscurans; 3.0 μm, 120 hrs): −37.4 ± 25.0% | Percent change in fungal growth vs control (negative = inhibition) (Phomopsis obscurans; 3.0 μm, 144 hrs): −13.3 ± 36.0% | Percent change in fungal growth vs control (negative = inhibition) (Phomopsis obscurans; 30 μm, 120 hrs): −88.5 ± 3.4% | Percent change in fungal growth vs control (negative = inhibition) (Phomopsis obscurans; 30 μm, 144 hrs): −96.9 ± 1.2% | IC50 (Phomopsis obscurans; Paraphomopsis obscurans, Phomopis obscurans, at 120 hr, read-out: IC50 (growth inhibition)): < 3100 nM | Mean percent fungal growth inhibition of Phomopsis viticola (Phomopsis viticola; 0.3 μm, 120 hrs): 7.4 ± 124.1% | Mean percent fungal growth inhibition of Phomopsis viticola (Phomopsis viticola; 0.3 μm, 144 hrs): 423.2 ± 185.3% | Mean percent fungal growth inhibition of Phomopsis viticola (Phomopsis viticola; 3.0 μm, 120 hrs): −71.1 ± 50.9% | Mean percent fungal growth inhibition of Phomopsis viticola (Phomopsis viticola; 3.0 μm, 144 hrs): −71.3 ± 15.7% | Mean percent fungal growth inhibition of Phomopsis viticola (Phomopsis viticola; 30 μm, 120 hrs): −61.8 ± 86.8% | Mean percent fungal growth inhibition of Phomopsis viticola (Phomopsis viticola; 30 μm, 144 hrs): −79.1 ± 13.3% | IC50 (Phomopsis viticola; Diaporthe ampelina, 72 h, read-out: IC50 (growth inhibition)): < 1550 nM

Reference: patent US7109380B2, “Cyclopentenedione antifungal compounds and methods for their use” (The University of Mississippi, priority 2004, dated 2006)
